Results published in the NIST ThermoML archive (doi:10.1021/je900916e).

Assay: cn = amount concentration of the nth substance listed, in mol/dm3
Details: 101 kPa, Liquid, Advanced Conductivity Orion 162A

CCCC[N+](CCCC)(CCCC)CCCC.O=C([O-])C(F)(F)C(F)(F)C(F)(F)C(F)(F)C(F)(F)C(F)(F)C(F)(F)F [tetrabutylammonium perfluorooctanoate] + O
Details | electrical conductivity [S/m]
283.1 K, c1 = 0.000329 | 0.00105
283.1 K, c1 = 0.000649 | 0.0019
283.1 K, c1 = 0.000962 | 0.00271
283.1 K, c1 = 0.001266 | 0.00351
283.1 K, c1 = 0.001562 | 0.00431
283.1 K, c1 = 0.001852 | 0.00505
283.1 K, c1 = 0.002134 | 0.00579
283.1 K, c1 = 0.00241 | 0.00643
283.1 K, c1 = 0.002678 | 0.00707
283.1 K, c1 = 0.002941 | 0.00749
283.1 K, c1 = 0.003198 | 0.00762
283.1 K, c1 = 0.003448 | 0.0077
283.1 K, c1 = 0.003814 | 0.00782
283.1 K, c1 = 0.004167 | 0.00793
283.1 K, c1 = 0.004508 | 0.00803
283.1 K, c1 = 0.004839 | 0.00812
283.1 K, c1 = 0.005159 | 0.00821
283.1 K, c1 = 0.005469 | 0.00831
288.15 K, c1 = 0.000247 | 0.00099
288.15 K, c1 = 0.000488 | 0.00175
288.15 K, c1 = 0.000723 | 0.00249
288.15 K, c1 = 0.000952 | 0.0032
288.15 K, c1 = 0.001176 | 0.00389
288.15 K, c1 = 0.001395 | 0.00457
288.15 K, c1 = 0.001609 | 0.00521
288.15 K, c1 = 0.001818 | 0.00582
288.15 K, c1 = 0.00202 | 0.00641
288.15 K, c1 = 0.002222 | 0.00704
288.15 K, c1 = 0.002418 | 0.00756
288.15 K, c1 = 0.002609 | 0.00796
288.15 K, c1 = 0.002796 | 0.00811
288.15 K, c1 = 0.002979 | 0.00819
288.15 K, c1 = 0.003246 | 0.0083
288.15 K, c1 = 0.003505 | 0.00839
288.15 K, c1 = 0.003838 | 0.00852
288.15 K, c1 = 0.004158 | 0.00863
288.15 K, c1 = 0.004466 | 0.00873
288.15 K, c1 = 0.004906 | 0.00888
288.15 K, c1 = 0.005321 | 0.00902
293.15 K, c1 = 0.000263 | 0.00116
293.15 K, c1 = 0.000519 | 0.0021
293.15 K, c1 = 0.000769 | 0.00299
293.15 K, c1 = 0.001013 | 0.00386
293.15 K, c1 = 0.00125 | 0.00471
293.15 K, c1 = 0.001481 | 0.00552
293.15 K, c1 = 0.001707 | 0.00626
293.15 K, c1 = 0.001928 | 0.00699
293.15 K, c1 = 0.002143 | 0.0077
293.15 K, c1 = 0.002353 | 0.00829
293.15 K, c1 = 0.002558 | 0.0085
293.15 K, c1 = 0.002759 | 0.00862
293.15 K, c1 = 0.002954 | 0.00871
293.15 K, c1 = 0.00324 | 0.00884
293.15 K, c1 = 0.003516 | 0.00895
293.15 K, c1 = 0.003784 | 0.00907
293.15 K, c1 = 0.004042 | 0.0092
293.15 K, c1 = 0.004375 | 0.00931
293.15 K, c1 = 0.004694 | 0.00944
293.15 K, c1 = 0.005 | 0.00956
298.15 K, c1 = 0.000248 | 0.00124
298.15 K, c1 = 0.00049 | 0.00229
298.15 K, c1 = 0.000728 | 0.0033
298.15 K, c1 = 0.000962 | 0.0043
298.15 K, c1 = 0.00119 | 0.00528
298.15 K, c1 = 0.001415 | 0.00618
298.15 K, c1 = 0.001636 | 0.00703
298.15 K, c1 = 0.001852 | 0.00789
298.15 K, c1 = 0.002064 | 0.00869
298.15 K, c1 = 0.002273 | 0.00907
298.15 K, c1 = 0.002477 | 0.00916
298.15 K, c1 = 0.002728 | 0.00927
298.15 K, c1 = 0.003094 | 0.00944
298.15 K, c1 = 0.003448 | 0.00959
298.15 K, c1 = 0.003814 | 0.00976
298.15 K, c1 = 0.004167 | 0.00992
298.15 K, c1 = 0.004592 | 0.01011
298.15 K, c1 = 0.005 | 0.01028
303.15 K, c1 = 0.000263 | 0.00148
303.15 K, c1 = 0.000519 | 0.00267
303.15 K, c1 = 0.000769 | 0.00383
303.15 K, c1 = 0.001013 | 0.00497
303.15 K, c1 = 0.00125 | 0.0061
303.15 K, c1 = 0.001481 | 0.00717
303.15 K, c1 = 0.001707 | 0.00814
303.15 K, c1 = 0.001928 | 0.00909
303.15 K, c1 = 0.002143 | 0.00964
303.15 K, c1 = 0.002353 | 0.00979
303.15 K, c1 = 0.002558 | 0.00989
303.15 K, c1 = 0.002759 | 0.00998
303.15 K, c1 = 0.002954 | 0.01005
303.15 K, c1 = 0.00324 | 0.01016
303.15 K, c1 = 0.003516 | 0.01026
303.15 K, c1 = 0.003784 | 0.01035
303.15 K, c1 = 0.004042 | 0.01044
303.15 K, c1 = 0.004375 | 0.01055
303.15 K, c1 = 0.004694 | 0.01065
308.15 K, c1 = 0.000309 | 0.00189
308.15 K, c1 = 0.00061 | 0.0034
308.15 K, c1 = 0.000904 | 0.00484
308.15 K, c1 = 0.00119 | 0.00633
308.15 K, c1 = 0.00147 | 0.00774
308.15 K, c1 = 0.001744 | 0.00909
308.15 K, c1 = 0.002011 | 0.01001
308.15 K, c1 = 0.002273 | 0.01017
308.15 K, c1 = 0.002423 | 0.01022
308.15 K, c1 = 0.002578 | 0.01026
308.15 K, c1 = 0.002728 | 0.0103
308.15 K, c1 = 0.002876 | 0.01034
